The results in this text go back to PubChem BioAssay AID1259407 (Chemical Carcinogenesis Research Information System (CCRIS), 2018).

Active and inactive are the calls of the source. How the calls were made is not given here.

The series has as its system CCRIS mutagenicity, Ames/micronucleus/aberration tests. The experiment in a line: CCRIS mutagenicity studies.
The mark [1] stands for this setting: Test System: AMES SALMONELLA TYPHIMURIUM, Strain/Indicator: TA98, Metabolic Activation: NONE, Method: STANDARD PLATE.
[2] abbreviates: Test System: AMES SALMONELLA TYPHIMURIUM, Strain/Indicator: TA100, Metabolic Activation: NONE, Method: STANDARD PLATE.
The mark [3] stands for this setting: Test System: AMES SALMONELLA TYPHIMURIUM, Strain/Indicator: TA1535, Metabolic Activation: NONE, Method: STANDARD PLATE.

With `CN1C(=O)CN=C(c2ccccc2)c2cc(Cl)ccc21`, the mutagenic call was “active; positive” (End Point: IN VITRO MICRONUCLEUS, Test System: V79 CELLS, Metabolic Activation: NONE); “inactive; negative” (End Point: IN VIVO CHROMOSOMAL ABERRATIONS, Test System: PERIPHERAL BLOOD LYMPHOCYTES, Species: HUMAN, Strain/Sex: MALE, FEMALE, Route: IV); “inactive; negative” (Test System: AMES SALMONELLA TYPHIMURIUM, Strain/Indicator: TA97, Metabolic Activation: HAMSTER, LIVER, S-9, AROCLOR 1254 (10 OR 30%), Method: PREINCUBATION); “inactive; negative” (Test System: AMES SALMONELLA TYPHIMURIUM, Strain/Indicator: TA97, Metabolic Activation: NONE, Method: PREINCUBATION); “inactive; negative” (Test System: AMES SALMONELLA TYPHIMURIUM, Strain/Indicator: TA97, Metabolic Activation: RAT, LIVER, S-9, AROCLOR 1254 (10 OR 30%), Method: PREINCUBATION); “inactive; negative” (Test System: AMES SALMONELLA TYPHIMURIUM, Strain/Indicator: TA98, Metabolic Activation: HAMSTER, LIVER, S-9, AROCLOR 1254 (10 OR 30%), Method: PREINCUBATION). Besides, the mutagenic call (Test System: AMES SALMONELLA TYPHIMURIUM, Strain/Indicator: TA98, Metabolic Activation: NONE, Method: PREINCUBATION) was “inactive; negative”; the mutagenic call under setting [1] is “inactive; negative”; the mutagenic call (Test System: AMES SALMONELLA TYPHIMURIUM, Strain/Indicator: TA98, Metabolic Activation: RAT, LIVER, S-9, AROCLOR 1254 (10 OR 30%), Method: PREINCUBATION) was “inactive; negative”; the mutagenic call (Test System: AMES SALMONELLA TYPHIMURIUM, Strain/Indicator: TA98, Metabolic Activation: RAT, LIVER, S-9, AROCLOR 1254, Method: STANDARD PLATE) was “inactive; negative”; the mutagenic call (Test System: AMES SALMONELLA TYPHIMURIUM, Strain/Indicator: TA100, Metabolic Activation: HAMSTER, LIVER, S-9, AROCLOR 1254 (10 OR 30%), Method: PREINCUBATION) was “inactive; negative”; the mutagenic call (Test System: AMES SALMONELLA TYPHIMURIUM, Strain/Indicator: TA100, Metabolic Activation: NONE, Method: PREINCUBATION) is “inactive; negative”. Besides, the mutagenic call under setting [2] was “inactive; negative”; the mutagenic call (Test System: AMES SALMONELLA TYPHIMURIUM, Strain/Indicator: TA100, Metabolic Activation: RAT, LIVER, S-9, AROCLOR 1254 (10 OR 30%), Method: PREINCUBATION) was “inactive; negative”; the mutagenic call (Test System: AMES SALMONELLA TYPHIMURIUM, Strain/Indicator: TA100, Metabolic Activation: RAT, LIVER, S-9, AROCLOR 1254, Method: STANDARD PLATE) was “inactive; negative”; the mutagenic call (Test System: AMES SALMONELLA TYPHIMURIUM, Strain/Indicator: TA1535, Metabolic Activation: HAMSTER, LIVER, S-9, AROCLOR 1254 (10 OR 30%), Method: PREINCUBATION) was “inactive; negative”; the mutagenic call (Test System: AMES SALMONELLA TYPHIMURIUM, Strain/Indicator: TA1535, Metabolic Activation: NONE, Method: PREINCUBATION) was “inactive; negative”; the mutagenic call under setting [3] was “inactive; negative”. For the same compound, the mutagenic call is, setting by setting: (Test System: AMES SALMONELLA TYPHIMURIUM, Strain/Indicator: TA1535, Metabolic Activation: RAT, LIVER, S-9, AROCLOR 1254 (10 OR 30%), Method: PREINCUBATION) “inactive; negative”; (Test System: AMES SALMONELLA TYPHIMURIUM, Strain/Indicator: TA1535, Metabolic Activation: RAT, LIVER, S-9, AROCLOR 1254, Method: STANDARD PLATE) “inactive; negative”; (Test System: AMES SALMONELLA TYPHIMURIUM, Strain/Indicator: TA1537, Metabolic Activation: HAMSTER, LIVER, S-9, AROCLOR 1254 (30%), Method: PREINCUBATION) “inactive; negative”; (Test System: AMES SALMONELLA TYPHIMURIUM, Strain/Indicator: TA1537, Metabolic Activation: NONE, Method: PREINCUBATION) “inactive; negative”; (Test System: AMES SALMONELLA TYPHIMURIUM, Strain/Indicator: TA1537, Metabolic Activation: NONE, Method: STANDARD PLATE) “inactive; negative”; (Test System: AMES SALMONELLA TYPHIMURIUM, Strain/Indicator: TA1537, Metabolic Activation: RAT, LIVER, S-9, AROCLOR 1254 (30%), Method: PREINCUBATION) “inactive; negative”. Also, the mutagenic call (Test System: AMES SALMONELLA TYPHIMURIUM, Strain/Indicator: TA1537, Metabolic Activation: RAT, LIVER, S-9, AROCLOR 1254, Method: STANDARD PLATE) is “inactive; negative”.
Turning to `O=C1OCCN1N=Cc1ccc([N+](=O)[O-])o1`, the mutagenic call by setting is: (End Point: In vivo micronucleus, Test System: Bone marrow polychromatic erythrocytes, Species: Rat, Strain/Sex: Sprague-Dawley/Female, Route: Oral) “inactive; positive (p</=0.05 for mononuclei; p</=0.01 for binuclei for furazolidone alone;”; (Test System: AMES SALMONELLA TYPHIMURIUM, Strain/Indicator: TA98(1,8-DNP6), Metabolic Activation: NONE, Method: STANDARD PLATE) “active; positive”; (Test System: AMES SALMONELLA TYPHIMURIUM, Strain/Indicator: TA98(1,8-DNP6), Metabolic Activation: RAT, LIVER, S-9, 3-METHYLCHOLANTHRENE, Method: STANDARD PLATE) “active; positive”; (Test System: AMES SALMONELLA TYPHIMURIUM, Strain/Indicator: TA98(NR), Metabolic Activation: NONE, Method: STANDARD PLATE) “active; positive”; (Test System: AMES SALMONELLA TYPHIMURIUM, Strain/Indicator: TA98(NR), Metabolic Activation: RAT, LIVER, S-9, 3-METHYLCHOLANTHRENE, Method: STANDARD PLATE) “active; positive”; (Test System: AMES SALMONELLA TYPHIMURIUM, Strain/Indicator: TA98, Metabolic Activation: NONE) “active; positive”. Besides, the mutagenic call reads like this: under setting [1], “active; positive”; (Test System: AMES SALMONELLA TYPHIMURIUM, Strain/Indicator: TA98, Metabolic Activation: RAT, LIVER, S-9, 3-METHYLCHOLANTHRENE, Method: STANDARD PLATE) “active; positive”; (Test System: AMES SALMONELLA TYPHIMURIUM, Strain/Indicator: TA98, Metabolic Activation: S-9) “active; positive”; (Test System: AMES SALMONELLA TYPHIMURIUM, Strain/Indicator: TA100, Metabolic Activation: NONE) “active; positive”; (Test System: AMES SALMONELLA TYPHIMURIUM, Strain/Indicator: TA100, Metabolic Activation: S-9) “active; positive”; (Test System: CHINESE HAMSTER OVARY, Strain/Indicator: CHO-AS52, Metabolic Activation: NONE) “inactive; negative”. Besides, the mutagenic call by setting is: (Test System: CHINESE HAMSTER OVARY, Strain/Indicator: CHO-AS52, Metabolic Activation: RAT, LIVER, S-9, 3-METHYLCHOLANTHRENE) “inactive; negative”; (Test System: CHINESE HAMSTER OVARY, Strain/Indicator: CHO-K1-BH4, Metabolic Activation: NONE) “active; positive”; (Test System: CHINESE HAMSTER OVARY, Strain/Indicator: CHO-K1-BH4, Metabolic Activation: RAT, LIVER, S-9, 3-METHYLCHOLANTHRENE) “active; positive”; (Test System: CHINESE HAMSTER OVARY, Strain/Indicator: CHO-UV5, Metabolic Activation: NONE) “active; positive”; (Test System: CHINESE HAMSTER OVARY, Strain/Indicator: CHO-UV5, Metabolic Activation: RAT, LIVER, S-9, 3-METHYLCHOLANTHRENE) “active; positive”; (Test System: E. COLI, Strain/Indicator: TC3960, Metabolic Activation: NONE, Method: PREINCUBATION) “active; positive”. Besides, the mutagenic call reads like this: (Test System: E. COLI, Strain/Indicator: WP2, Metabolic Activation: NONE, Method: SPOT) “active; positive”; (Test System: E. COLI, Strain/Indicator: WP2 UVRA, Metabolic Activation: NONE, Method: SPOT) “active; positive”.
For `COc1cc(OC)c2nc3occc3c(OC)c2c1`, the mutagenic call is “active; positive” (Test System: AMES SALMONELLA TYPHIMURIUM, Strain/Indicator: TA98, Metabolic Activation: RAT, LIVER, S-9, PHENOBARBITAL, Method: STANDARD PLATE) and “active; positive” (Test System: AMES SALMONELLA TYPHIMURIUM, Strain/Indicator: TA100, Metabolic Activation: RAT, LIVER, S-9, PHENOBARBITAL, Method: STANDARD PLATE).
Turning to `c1ccc([C@H]2O[C@H]2c2ccccc2)cc1`, the mutagenic call (Test System: UDS RAT HEPATOCYTES, Strain/Indicator: THY INCORP, Metabolic Activation: NONE) is “inactive; negative”.
Regarding `C=CCCCCCCCCC`, the mutagenic call was “inactive; negative” (Test System: AMES SALMONELLA TYPHIMURIUM, Strain/Indicator: TA98, Metabolic Activation: MOUSE, LIVER, S-9, Method: STANDARD PLATE); “inactive; negative” under setting [1]; “inactive; negative” (Test System: AMES SALMONELLA TYPHIMURIUM, Strain/Indicator: TA100, Metabolic Activation: MOUSE, LIVER, S-9, Method: STANDARD PLATE); “inactive; negative” under setting [2]; “inactive; negative” under setting [3]; “inactive; negative” (Test System: AMES SALMONELLA TYPHIMURIUM, Strain/Indicator: TA1538, Metabolic Activation: NONE, Method: STANDARD PLATE).
